Test results reported in PMC5668678 (Biochemistry and Biophysics Reports, 2015).

Assays:
KCNQ1-M2 chimera channel = experiment: Patch clamp of KCNQ1-M2 chimera currents; format: cell-based, human; settings: 1 μM ChTX, HEK293 cells, filter region mutant
KCNQ1-M1 channel chimera = experiment: Patch clamp of KCNQ1-M1 chimera currents; format: cell-based, human; settings: 1 μM ChTX, HEK293 cells, turret and filter region mutant
MmKv2 channel = settings: ref [24]; cited from earlier work
KCNQ1-Q321V channel = experiment: Patch clamp of KCNQ1 single residue mutant at Q321, sensitivity to ChTX; format: cell-based, human; settings: site-directed mutant, HEK293 cells, Fig. 3
MmKv1 channel = settings: versus Kv1.3; ref [24]; cited from earlier work
KCNQ1-K318M channel = experiment: Patch clamp of KCNQ1 single residue mutant at Lys318, sensitivity to ChTX; format: cell-based, human; settings: site-directed mutant, HEK293 cells, Fig. 3
KCNQ1-M3 chimera channel = experiment: Patch clamp of KCNQ1-M3 chimera currents; format: cell-based, human; settings: 1 μM ChTX, HEK293 cells, turret region mutant

Q: With charybdotoxin [ChTX] as the substance, how does the “inhibition of KCNQ1-M2 channel currents” value (KCNQ1-M2 chimera channel) read?
A: effectively inhibited

Q: And the “inhibition of KCNQ1-M1 channel currents” value (KCNQ1-M1 channel chimera)?
A: effectively inhibited

Q: What about the “sensitivity of MmKv2 toward scorpion venom and ChTX” value (MmKv2 channel) of the same substance?
A: completely insensitive

Q: And the “effect of residue Q321 on the binding of ChTX” value (KCNQ1-Q321V channel)?
A: did not affect the binding of ChTX

Q: What about the “sensitivity of MmKv1 toward scorpion venom and ChTX, compared with Kv1.3” value (MmKv1 channel) of the same substance?
A: weaker sensitivity

Q: What about the “effect of residue Lys318 on the binding of ChTX” value (KCNQ1-K318M channel) of the same substance?
A: found to affect the binding of ChTX

Q: What about the “inhibition of KCNQ1-M3 channel currents” value (KCNQ1-M3 chimera channel) of the same substance?
A: not effectively inhibited
